Test results published in patent US11299468B2, “Methods for producing 5-(halomethyl)furfural” (Origin Materials Operating, Inc., priority 2013, dated 2022).

Experiment: Partition coefficient screen of CMF between organic phase and acidic brine
Assay type: physicochemical
Procedure: The solvent system used in the methods and compositions described herein may also be selected based on the partition coefficient of the 5-(halomethyl)furfural in the reaction mixture. As used herein, “partition coefficient” refers to the ratio of molar concentration of 5-(halomethyl)furfural in the organic phase to 5-(halomethyl)furfural in the aqueous phase in the reaction mixture.
[…] […] A 1 mL sample was removed from each phase. The microwave vial was then resealed, and re-shaken.
The 1 mL samples were added to volumetric flasks, where the acidic brine solution was diluted with THF and an amount of 37% HCl (˜3 mL) sufficient to eliminate the formation of a biphase with THF. The organic phase sample was diluted with toluene. The dilutions were then put into 1 dram vials and saved.
Further sampling of each phase was repeated every […] for the duration of each 4-hour experiment resulting in a total of 6 samples per experiment. Throughout the course of the experiment the microwave vial was shaken every 20 minutes to promote contact between the two phases. The 6 samples of each experiment in this Example were then taken from the 1 dram vials and put into 1.5 ml vials and submitted to HPLC for CMF analysis.

[1] = No. 1, organic Toluene, aqueous HCl (11.66N), 25 °C
[2] = No. 2, organic Toluene, aqueous 1N H+ 11N Li+ 12N Cl−, 24.6 °C
[3] = No. 3, organic Toluene, aqueous 6N H+ 6N Li+ 12N Cl−, 25 °C
[4] = No. 4, organic Toluene, aqueous 2N H+ 10N Li+ 12N Cl−, 29.7 °C
[5] = No. 5, organic Toluene, aqueous 1N H+ 11N Li+ 12N Cl−, 50 °C
[6] = No. 6, organic Toluene, aqueous 6N H+ 6N Li+ 12N Cl−, 50 °C
[7] = No. 7, organic Toluene, aqueous 2N H+ 10N Li+ 12N Cl−, 50 °C
[8] = No. 8, organic Toluene, aqueous 2N H+ 4N Mg2+ 12N Cl−, 23.6 °C
[9] = No. 9, organic Toluene, aqueous 2N H+ 4M sodium triflate 2M Cl−, 27.1 °C
[10] = No. 10, organic Toluene, aqueous 2M H+ 10M Na+ 12M Cl−, 24.6 °C
[11] = No. 11, organic Toluene, aqueous 2M H+ 1:1 12M LiCl:saturated NaCl, 24.1 °C
[12] = No. 12, organic Toluene, aqueous 2M H+ saturated KCl, 24.2 °C
[13] = No. 13, organic Toluene, aqueous 2M H+ 1:1 12M LiCl:saturated KCl, 24.8 °C
[14] = No. 14, organic Toluene, aqueous 2M H+ 1:2 12M LiCl:saturated NaCl, 24.5 °C
[15] = No. 15, organic Toluene, aqueous 2M H+ 1:2 12M LiCl:saturated KCl, 24.5 °C
[16] = No. 16, organic Toluene, aqueous 2M H+ 1:1 12M LiCl:saturated MgCl2, 22 °C
[17] = No. 17, organic Toluene, aqueous 2M H+ 10M Zn2+ 24M Cl−, 22 °C
[18] = No. 18, organic Toluene, aqueous 2M H+ 4.13M Ca2+ 12.2M Cl−, 27 °C
[19] = No. 19, organic Toluene, aqueous 2M H+ 6M Ca2+ 14M Cl−, 27 °C
[20] = No. 20, organic Toluene, aqueous 2M H+ 4.13M Ca2+ 12.2M Cl−, 50 °C
[21] = No. 21, organic Toluene, aqueous 2M H+ 6M Ca2+ 14M Cl−, 50 °C
[22] = No. 22, organic Toluene, aqueous 2M H+ Satd. Rb, 24.5 °C
[23] = No. 23, organic Toluene, aqueous 2M H+ Satd. Cs, 24.5 °C
[24] = No. 24, organic Cepsa ® 550Q, aqueous 6N H+ 6N Li+ 12N Cl−, 23.3 °C
[25] = No. 25, organic Cepsa ® 550Q, aqueous 1N H+ 11N Li+ 12N Cl−, 24.5 °C
[26] = No. 26, organic Cepsa ® 900Q, aqueous 1N H+ 11N Li+ 12N Cl−, 22.8 °C
[27] = No. 27, organic Cepsa ® 900Q, aqueous 6N H+ 6N Li+ 12N Cl−, 26.5 °C
[28] = No. 28, organic Santovac ®-5, aqueous 1N H+ 11N Li+ 12N Cl−, 27.2 °C
[29] = No. 29, organic Santovac ®-5, aqueous 6N H+ 6N Li+ 12N Cl−, 23.7 °C
[30] = No. 30, organic Santovac ®-5, aqueous 2N H+ 10N Li+ 12N Cl−, 28.1 °C
[31] = No. 31, organic Santovac ®-5, aqueous 1N H+ 11N Li+ 12N Cl−, 50 °C
[32] = No. 32, organic Santovac ®-5, aqueous 6N H+ 6N Li+ 12N Cl−, 50 °C
[33] = No. 33, organic Santovac ®-5, aqueous 2N H+ 10N Li+ 12N Cl−, 50 °C
[34] = No. 34, organic Dichloroethane (4 mL), aqueous 37% HCl (4 mL), 28.5 °C
[35] = No. 35, organic Dichloroethane (17.6 mL), aqueous 37% HCl (4 mL), 28.5 °C

For `O=Cc1ccc(CCl)o1` [CMF, 5-(chloromethyl)furfural], the “Normalized ratio (organic:aqueous)” value [1] was 3.0, the “log PC” value [1] was 0.48 and the “Normalized ratio (organic:aqueous)” value [2] was 144.0. For the same molecule, the “log PC” value [2] was 2.16, the “Normalized ratio (organic:aqueous)” value [3] was 17.4 and the “log PC” value [3] was 1.24. The “Normalized ratio (organic:aqueous)” value [4] was 72.9, the “log PC” value [4] was 1.86 and the “Normalized ratio (organic:aqueous)” value [5] was 110.0. The “log PC” value [5] was 2.04, the “Normalized ratio (organic:aqueous)” value [6] was 18.9 and the “log PC” value [6] was 1.27. The “Normalized ratio (organic:aqueous)” value [7] was 79.6, the “log PC” value [7] was 1.9 and the “Normalized ratio (organic:aqueous)” value [8] was 61.3. For the same molecule, the “log PC” value [8] was 1.78, the “Normalized ratio (organic:aqueous)” value [9] was 8.3 and the “log PC” value [9] was 0.92. For the same molecule, the “Normalized ratio (organic:aqueous)” value [10] was 66.1, the “log PC” value [10] was 1.82 and the “Normalized ratio (organic:aqueous)” value [11] was 90.1. The “log PC” value [11] was 1.95, the “Normalized ratio (organic:aqueous)” value [12] was 222.0 and the “log PC” value [12] was 2.34. For the same molecule, the “Normalized ratio (organic:aqueous)” value [13] was 71.1, the “log PC” value [13] was 1.85 and the “Normalized ratio (organic:aqueous)” value [14] was 100.0. The “log PC” value [14] was 2, the “Normalized ratio (organic:aqueous)” value [15] was 119.0 and the “log PC” value [15] was 2.07. The “Normalized ratio (organic:aqueous)” value [16] was 68.0, the “log PC” value [16] was 1.83 and the “Normalized ratio (organic:aqueous)” value [17] was 0.6. For the same molecule, the “log PC” value [17] was −0.23, the “Normalized ratio (organic:aqueous)” value [18] was 73.8 and the “log PC” value [18] was 1.87. The “Normalized ratio (organic:aqueous)” value [19] was 80.0, the “log PC” value [19] was 1.9 and the “Normalized ratio (organic:aqueous)” value [20] was 82.6. For the same molecule, the “log PC” value [20] was 1.91, the “Normalized ratio (organic:aqueous)” value [21] was 141.7 and the “log PC” value [21] was 2.15. The “Normalized ratio (organic:aqueous)” value [22] was 74.7, the “log PC” value [22] was 1.87 and the “Normalized ratio (organic:aqueous)” value [23] was 41.3. For the same molecule, the “log PC” value [23] was 1.61, the “Normalized ratio (organic:aqueous)” value [24] was 1.6 and the “log PC” value [24] was 1.61. The “Normalized ratio (organic:aqueous)” value [25] was 20.3, the “log PC” value [25] was 1.31 and the “Normalized ratio (organic:aqueous)” value [26] was 10.2. The “log PC” value [26] was 1.01, the “Normalized ratio (organic:aqueous)” value [27] was 0.9 and the “log PC” value [27] was −0.04. For the same molecule, the “Normalized ratio (organic:aqueous)” value [28] was 60.7, the “log PC” value [28] was 1.78 and the “Normalized ratio (organic:aqueous)” value [29] was 6.6. The “log PC” value [29] was 0.82, the “Normalized ratio (organic:aqueous)” value [30] was 43.7 and the “log PC” value [30] was 1.64. The “Normalized ratio (organic:aqueous)” value [31] was 65.6, the “log PC” value [31] was 1.81 and the “Normalized ratio (organic:aqueous)” value [32] was 10.3. The “log PC” value [32] was 1.01, the “Normalized ratio (organic:aqueous)” value [33] was 55.9 and the “log PC” value [33] was 1.74. The “Normalized ratio (organic:aqueous)” value [34] was 10.9, the “log PC” value [34] was 1.03 and the “Normalized ratio (organic:aqueous)” value [35] was 11.6. For the same molecule, the “log PC” value [35] was 1.7.
